# Source: patent US9616066B2, “Therapy for constipation” (priority 2012, dated 2017)
# Tests used:
# [1] = test system: non-opiate medication-related constipation; test: Case Example 2: cetilistat for constipation related to amitriptyline (non-opiate medication); format: in vivo, human
# Protocol: A person with fibromyalgia being treated with the tricyclic antidepressant, amitriptyline, suffered from a global pain disorder requiring pain management. They were of average weight, not over-weight. They were treated with amitriptyline that is a known therapeutic agent for mild to moderate fibromyalgia. This tricyclic antidepressant is also known for causing dry mouth, blurry vision and constipation.
# [2] = test system: constipation related to menstrual cycle; test: Case Example 6: cetilistat for constipation related to menstrual cycle; format: in vivo, human; details: cetilistat 60 mg oral once a day with food, as needed
# Source text: This is a case of a person who complained of recurring constipation related to their menstrual cycle. They noticed that a few days before the onset of their menstrual cycle and for the week of their menstrual cycle they develop constipation that aggravates their bloating and abdominal pain. They are not overweight. They have tried over-the-counter laxatives and tried some standard prescription laxatives that caused them to feel more bloated. […] Their doctor gave them a prescription of cetilistat (one 60 mg oral pill once a day with food) to be taken one to three days before the onset of their menstruation. In the fourth week of their period, they noticed normalization of their bowel movement and required to take the cetilistat only as needed. Often they only need to take it three times during their menstrual cycle. […] Typically, they required the cetilistat 3-7 days per cycle. […] Further, the cetilistat may be used as needed as a medication for constipation.
# [3] = test system: lazy bowel and age-related constipation; test: Case Example 3: cetilistat for constipation in person (non-opiate medications, dehydration, lazy bowel); format: in vivo, human; details: cetilistat 60 mg twice daily
# Source text: Person living in a nursing home with mild dementia complained of painful bowel movements causing an anal fissure with bleeding in their rectum. The cause of their constipation was deemed to be due to a combination of non-opiate medications, dehydration, and a lazy bowel. The patient also complained of abdominal distention and some intermittent abdominal discomfort. The patient was not overweight. […] They had abdominal pain with conventional bowel stimulants. […] The cetilistat resolved the constipation in an acute case and allowed for long-term recovery from a constipation-related complication. Further, it was effective in the treatment of lazy bowel and age-related constipation.
# [4] = test system: irritable bowel syndrome, chronic abdominal pain; test: Case Example 10: orlistat in person with irritable bowel syndrome; format: in vivo, human; details: over 4 to 6 weeks
# Source text: This case involves a non-overweight person with a history of irritable bowel syndrome. The person reported chronic abdominal pain and bloating, minor occasional constipation, minor occasional diarrhea, and lower back pain for the past five years. They were otherwise well. They had 2 colonoscopies, and an ultrasound of the abdomen and pelvis, all of which were normal. They were also taking an oral dose of B12. They were on other medications as well. […] There was no rebound or rigidity. They had no enlargement of any organs. They had tenderness globally around their abdomen, tightness of the iliopsoas bilaterally and oblique muscles. Their bowels were tender, and they were chronically uncomfortable and in pain. They were treated with orlistat (120 mg, once or twice a day as needed with food). […] They felt generally better, and was able to stop taking vitamin B12 because the absorption of […] B12 improved with their improved bowel function. Thus, orlistat was useful to treat IBD.
# [5] = test system: constipation related to dehydration, post-gastroenteritis; test: Case Example 4: orlistat for constipation related to post-infection and dehydration; format: in vivo, human
# Protocol: A person travelled to Mexico and while there developed acute gastroenteritis. The patient was of average weight (not overweight). They began experiencing vomiting and diarrhea while there. They became dehydrated and eventually was transferred to their home in Canada. The virus had cleared one day after arriving back in Canada. They began eating and drinking but had developed constipation related to post-infection and dehydration. They were given orlistat (120 mg orally once daily with food) by their doctor for one week and this resolved their constipation within 24 hours. […] The improvement was such that after seven days that when they stopped the medication (orlistat), they were able to return to their normal diet.
# [6] = test system: fibromyalgia, irritable bowel syndrome, chronic abdominal pain; test: Case Example 9: orlistat in fibromyalgia patient with irritable bowel syndrome; format: in vivo, human
# Source text: This case involves a person with a 15 year history of fibromyalgia. The person reported chronic pain involving the neck, lower back, migraine headaches, abdominal bloating, and constipation with occasional diarrhea. They had been diagnosed with fibromyalgia about 10 years prior, and had chronic abdominal pain, bloating and a formal diagnosis of irritable bowel syndrome. […] Serology, abdominal x-rays, ultrasound of the abdomen and pelvis, were normal. […] There were no masses or any signs of acute surgical abdomen. They were taking Lyrica™ 75 mg twice a day, Flexeril™ 10 mg twice a day as needed, Percocet™ 2 twice a day as needed, and Celebrex™ 200 mg once a day. They were given orlistat (120 mg, twice a day as needed to take with food), and they noted that their constipation resolved, their bloating resolved, their occasional diarrhea resolved, and their abdominal pain resolved.
# [7] = test system: paralytic bowel, chronic constipation; test: Case Example 5: orlistat for paralytic bowel after spinal cord transection; format: in vivo, human; details: orlistat 120 mg three times a day with food
# Source text: A person of average weight (not overweight) suffered a thoracic spinal injury with transection of the spinal cord resulting in complete paralysis below the third thoracic vertebrae. They went on to develop full paralysis of their muscles below T-3 including the skeletal muscles and smooth muscles of the gut. They developed a paralytic bowel contributing to chronic constipation with overflow and diarrhea. They required regular manual disempaction and Fleet enemas to manage their chronic constipation. The patient was given orlistat (120 mg one pill three times a day with food) by their doctor.
# [8] = test system: constipation related to deconditioning/bedridden; test: Case Example 8: orlistat for constipation related to being bedridden; format: in vivo, human
# Protocol: His stools and bowel function gradually became more regular allowing for a reduction of dose of the orlistat (to one 120 mg oral pill twice per day with food) as maintenance.
# [9] = test system: opiate-related constipation
# [10] = test system: chronic constipation after bowel resection/colostomy; test: Case Example 7: orlistat for constipation after partial bowel resection with colostomy; format: in vivo, human
# Source text: person suffering from bowel cancer was given a partial bowel resection with a colostomy and bag. They complained that since their bowel surgery they suffered chronic constipation and hard stools. […] It would sometimes be so hard it could injure and cause bleeding to the ostomy site.
# [11] = test system: irritable bowel syndrome and heartburn; test: Case Example 11: orlistat in person with irritable bowel syndrome and heartburn; format: in vivo, human; details: orlistat 120 mg, one per day on average
# Source text: This example relates to a person with a 20 year history of irritable bowel syndrome and heartburn. The person reported chronic abdominal pain with bloating, occasional constipation or diarrhea, and epigastric discomfort for over 20 years. They had four colonoscopies over that period of time, and 2 endoscopies of the stomach. […] They also had ultrasounds of the abdomen and pelvis which were normal. They had 2 chest x-rays and an MRI of the abdomen, each of which were normal. They were taking Losec™ for their heartburn which was controlled. They were also taking low dose Atenolol™ for their blood pressure as they had developed some minor hypertension. They were otherwise well. […] There were no masses, rebound or rigidity. There were no organs that were tender or enlarged. They complained of persistent heartburn despite being on Losec™ and abdominal pain. They were treated with orlistat (120 mg, twice a day each with a meal to be reduced or increased as required up to three per day). They reported that they only required one per day on average and occasionally a second tablet. […] They became more flexible in their abdomen and lower back. They were more comfortable in their walking. Thus, orlistat was useful to treat IBD.
# [12] = orlistat 120 mg once or twice a day
# [13] = orlistat 120 mg twice a day as needed with food
smiles,measurement,setting,value
CCCCCCCCCCCCCCCCOc1nc2ccc(C)cc2c(=O)o1 [cetilistat],side effects reported,"[1]; cetilistat 60 mg once per day, one year",no major side effects
same,time to bowel movement,"[1]; cetilistat 60 mg orally once per day with food, patient on amitriptyline",≤ 24 h
same,bowel movements on continued daily treatment,[1]; cetilistat one pill per day,regular bowel movements daily
same,outcome after a year of amitriptyline and cetilistat,[1]; one year,good success with treatment of fibromyalgia and daily bowel movements
same,relief of constipation on days of use,[2],"good relief of their constipation with regular, soft bowel movements"
same,abdominal bloating and abdominal pain,[3],resolved
same,bowel movement regularity,[3],regular bowel movements daily
same,quality of the bowel movement,[3],painless and soft
same,anal fissure and rectal bleeding,[3]; over two weeks,the anal fissure had healed and the bleeding had stopped
CCCCCCCCCCC[C@@H](C[C@@H]1OC(=O)[C@H]1CCCCCC)OC(=O)[C@H](CC(C)C)NC=O [orlistat],bloating,[4]; orlistat 120 mg once or twice a day as needed with food,reduced bloating
same,abdominal pain,[4]; [12],resolution of their abdominal pain
same,diarrhea,[4]; [12],no episodes of diarrhea
same,muscles of abdomen and lower back,[4]; [12],relaxation of the muscles of their abdomen and lower back
same,straining with bowel movements,[4]; [12],less straining with bowel movements
same,bowel movements after cessation,[5]; after stopping orlistat at seven days,continue to be normal
same,bowel movements on treatment,[5]; orlistat 120 mg once daily,normal and regular
same,time to resolution of constipation,[5]; orlistat 120 mg orally once daily with food for one week,≤ 24 h
same,long-term outcome,[6]; combined medication for over two years,sustained good results
same,abdominal pain,[6]; [13],resolved
same,bloating,[6]; [13],resolved
same,occasional diarrhea,[6]; [13],resolved
same,overall fibromyalgia,[6]; [13],improvement in their overall fibromyalgia
same,constipation,"[6]; orlistat 120 mg twice a day as needed with food, with Lyrica, Flexeril, Percocet, Celebrex",resolved
same,bowel formation,[7],long-term improvement in bowel formation
same,bowel movements,[7],"soft and allowing for more regular, daily movements"
same,need for enemas and manual disempaction,[7],significant reduction of therapeutic enemas and manual disempaction
same,stool and bowel movements,"[8]; orlistat 120 mg once a day increased to three times per day with food, then twice per day as maintenance","softening of their stool, and the formation of regular bowel movements daily"
same,need for Fleet enemas and disempaction,"[8]; orlistat, maintenance 120 mg twice per day",cessation of the Fleet enemas and the disempaction
same,time to noticed improvement of constipation,"[9]; orlistat 120 mg BID orally with food, patient on MS Contin 60 mg BID",≤ 24 h
same,bowel movements within one week,"[9]; orlistat 120 mg BID orally with food, within one week",daily bowel movements
same,bowel movements over one year of treatment,"[9]; orlistat 120 mg BID, one year",good well-formed bowel movements most days
same,side effects reported,"[9]; orlistat 120 mg BID, one year",no major side effects
same,abdominal pain,[10]; orlistat 120 mg once daily,no longer had abdominal pain
same,bloating,[10]; orlistat 120 mg once daily,greatly improved
same,stool consistency,[10]; orlistat 120 mg once daily,softened their stool
same,average bowel movement frequency,[10]; orlistat 120 mg orally once daily with food,once a day
same,bloating,[11],great improvement of their bloating
same,abdominal pain and heartburn,[11]; over 4 to 6 weeks,great improvement of their abdominal pain and heartburn
